# Measured values reported in patent US10035806B2, “Derivatized corroles and metallocorroles and their use as imaging and therapeutic agents” (CALIFORNIA INSTITUTE OF TECHNOLOGY, priority 2015, dated 2018).
# System: DU-145, SK-MEL-28, MDA-MB-231, OVCAR-3
# Test: Uptake of gallium corroles (ImageXpress confocal), cell lines taken together
# Format: cell-based, human
# Settings: 30 μM, 37° C., dark
# Method: The intracellular uptake of gallium corroles was quantified using the ImageXpressultra laser point-scanning confocal microscope (Molecular Devices). The fluorescence image acquisition settings were as previously reported (Lim P, et al. (2012), Chem Res Toxicol 25(2):400-409.). Cells (DU-145, SK-MEL-28, MDA-MB-231, and OVCAR-3) were seeded in 96-well dishes (8×10^3 cells per well in 0.1 mL) and allowed to attach overnight. Complex 1, 2, 3, or 4 was added directly to cell media at 30 μM final concentration or media only control, and incubated for 0.25, 1, 3, or 24 h at 37° C. in the dark under a 5% CO2 atmosphere. Cells were fixed and labeled in situ with WGA-Alexa Fluor 488 conjugate and DAPI to allow for the identification of cell boundary and nucleus, respectively. The quantification of blue (DAPI) fluorescence signals in each sample yielded the total number of cells in that population. Corresponding determination of red (corrole) fluorescence within each cell, corrected for background fluorescence from untreated cells, provided the number of cells containing corroles. For each corrole concentration at various time points, fluorescence data were obtained for 1,000-22,000 individual cells. Data acquisitions and analyses were performed as described (Lim P, et al. (2012), Chem Res Toxicol 25(2):400-409). The percentage of corrole-positive cells and the median fluorescence intensity (median RFU) for each treatment were plotted in a three-axis graph using Microsoft Office Excel 2007 (Microsoft Corporation).
# To quantify the kinetics of intracellular uptake and accumulation of each derivative, ImageXpressultra, a laser point-scanning confocal microscope, was used for analyses. […] Cells were incubated at 37° C. in the dark for 0.25, 1, 3, or 24 h. […] Within 15 min, Complex 4 fluorescence was observable in ˜80% of ovarian cancer cells, 97% of breast cancer cells, and >99% of prostate cancer and melanoma cells, whereas up to 3 and 24 h were required to label >80% of cells from all four cancer lines with Complexes 3 and 2, respectively. […]
structure (smiles),measurement,value
O=C(O)CCCCCNc1c(F)c(F)c(C2=C3C=CC4=[N+]3[Ga-]35[n]6c2ccc6C(c2c(F)c(F)c(F)c(F)c2F)=c2ccc([n]23)=C(c2c(F)c(F)c(F)c(F)c2F)c2ccc4[n]25)c(F)c1F (stereo not shown) [Complex 3],time required to label >80% of cells from all four cancer lines,up to 3 h
